The record followed here is patent US10689354B2, “Aminoazole derivative” (Teijin Pharma Limited, priority 2015, dated 2020).

The target in this experiment is T1, androgen receptor (AR-LBD) (Rattus norvegicus, UniProt P15207).
T1 construct: 5 μL of 2×AR-LBD/Fluoromone AL Red Complex contained in the kit; purchased Invitrogen
T1 sequence (P15207 651-882 limits assumed): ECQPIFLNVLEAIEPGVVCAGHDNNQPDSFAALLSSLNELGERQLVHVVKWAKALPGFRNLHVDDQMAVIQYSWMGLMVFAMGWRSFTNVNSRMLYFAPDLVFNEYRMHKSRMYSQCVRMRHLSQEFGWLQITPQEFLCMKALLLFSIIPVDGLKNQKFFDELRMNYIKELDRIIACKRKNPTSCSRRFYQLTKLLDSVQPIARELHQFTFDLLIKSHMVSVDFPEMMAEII
The experiment can be described thus: Evaluation of androgen receptor affinity (PolarScreen Androgen Receptor Competitor Assay Kit, Red; fluorescence polarization). The settings on record: 22° C. for 5 hours, relative to binding rate of 1 μM DHT, read-out: AR affinity (pEC50) (converted). The method in brief:
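Duplicate wells; compound plus AR-LBD tracer complex incubated 22° C for 5 h, then FP measured. Effect compared with 1 μM DHT; 50%-effect concentration expressed as pEC50.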
On to `Cc1sc(N(Cc2ccccc2)Cc2ccc(C#N)cc2)nc1C(=O)NS(C)(=O)=O` [Example 289, 2-[benzyl-[(4-cyanophenyl)methyl]amino]-5-methyl-N-methylsulfonyl-thiazole-4-carboxamide], for which the EC50 was greater than 2000 nM.

For the compound `Cc1sc(N(CCc2ccc(C#N)cc2)CC2CCCCC2)nc1C(=O)NS(=O)(=O)C1CC1` [Compound 718, 2-[2-(4-cyanophenyl)ethyl-(cyclohexylmethyl)amino]-N-cyclopropylsulfonyl-5-methyl-thiazole-4-carboxamide], the EC50 is greater than 2000 nM.

As for `Cc1sc(N(Cc2ccccc2)C2CCCCC2)nc1C(=O)NS(C)(=O)=O` [Compound 670, 2-[benzyl(cyclohexyl)amino]-5-methyl-N-methylsulfonyl-thiazole-4-carboxamide], the EC50 was greater than 2000 nM.

As for `Cc1cc(C)n(CCN(Cc2ccccc2)c2nc(C(=O)NS(C)(=O)=O)c(C)s2)n1` [Compound 689, 2-[benzyl-[2-(3,5-dimethylpyrazol-1-yl)ethyl]amino]-5-methyl-N-methylsulfonyl-thiazole-4-carboxamide], the EC50 is greater than 2000 nM.

With `C=CCCN(c1ccc(C#N)cc1)c1nc(C(=O)NS(C)(=O)=O)c(C)s1` [Compound 448, 2-(N-but-3-enyl-4-cyano-anilino)-5-methyl-N-methylsulfonyl-thiazole-4-carboxamide], the EC50 is 1260 nM.

`Cc1sc(N(CCc2cccnc2)c2ccc(C#N)cc2)nc1C(=O)NS(C)(=O)=O` [Compound 134, 2-[4-cyano-N-[2-(3-pyridyl)ethyl]anilino]-5-methyl-N-methylsulfonyl-thiazole-4-carboxamide]: the EC50 is greater than 2000 nM.

As to `Cc1sc(N(CC2CCC(=O)CC2)c2ccc(C#N)cc2)nc1C(=O)NS(C)(=O)=O` [Compound 350, 2-[4-cyano-N-[(4-oxocyclohexyl)methyl]anilino]-5-methyl-N-methylsulfonyl-thiazole-4-carboxamide], the EC50 was greater than 2000 nM.

Take `Cc1sc(N(Cc2ccccc2)c2ccc(C#N)cc2)nc1C(=O)NS(=O)(=O)CCN1C(=O)c2ccccc2C1=O` [Compound 373, 2-(N-benzyl-4-cyano-anilino)-N-[2-(1,3-dioxoisoindolin-2-yl)ethylsulfonyl]-5-methyl-thiazole-4-carboxamide]: the EC50 was greater than 2000 nM.

As for `Cc1sc(N(Cc2ccccc2)C(C)Cc2ccccc2)nc1C(=O)NS(C)(=O)=O` (stereo not drawn) [Compound 674, 2-[benzyl-(1-methyl-2-phenyl-ethyl)amino]-5-methyl-N-methylsulfonyl-thiazole-4-carboxamide], the EC50 is greater than 2000 nM.

Take `Cc1sc(N(CCc2ccc(C(=O)OC(C)(C)C)cc2)Cc2ccccc2)nc1C(=O)NS(C)(=O)=O` [Compound 327, tert-butyl 4-[2-[benzyl-[5-methyl-4-(methylsulfonylcarbamoyl)thiazol-2-yl]amino]ethyl]benzoate]: the EC50 was greater than 2000 nM.

On to `Cc1sc(N(CC2CCOCC2)c2ccc(C#N)cc2)nc1C(=O)NS(C)(=O)=O` [Compound 346, 2-[4-cyano-N-(tetrahydropyran-4-ylmethyl)anilino]-5-methyl-N-methylsulfonyl-thiazole-4-carboxamide], for which the EC50 was greater than 2000 nM.

As for `Cc1sc(N(CCc2cccc(OC(F)(F)F)c2)Cc2ccccc2)nc1C(=O)NS(C)(=O)=O` [Compound 332, 2-[benzyl-[2-[3-(trifluoromethoxy)phenyl]ethyl]amino]-5-methyl-N-methylsulfonyl-thiazole-4-carboxamide], the EC50 was 398 nM.

On to `Cc1sc(N(Cc2ccccc2)c2cccc(OC(F)(F)F)c2)nc1C(=O)NS(C)(=O)=O` [Compound 35, 2-[N-benzyl-3-(trifluoromethoxy)anilino]-5-methyl-N-methylsulfonyl-thiazole-4-carboxamide], for which the EC50 was greater than 2000 nM.

Regarding `Cc1sc(N(CCc2ccc3nccnc3c2)Cc2ccccc2)nc1C(=O)NS(C)(=O)=O` [Compound 690, 2-[benzyl(2-quinoxalin-6-ylethyl)amino]-5-methyl-N-methylsulfonyl-thiazole-4-carboxamide], the EC50 was 1000 nM.

In the case of `Cc1sc(N(Cc2ccccc2)c2ccc(S(C)(=O)=O)cc2)nc1C(=O)NS(C)(=O)=O` [Example 261, 2-(N-benzyl-4-methylsulfonyl-anilino)-5-methyl-N-methylsulfonyl-thiazole-4-carboxamide], the EC50 is 1260 nM.

Consider `Cc1sc(N(CCc2ccccn2)Cc2ccccc2)nc1C(=O)NS(C)(=O)=O` [Compound 334, 2-[benzyl-[2-(2-pyridyl)ethyl]amino]-5-methyl-N-methylsulfonyl-thiazole-4-carboxamide], for which the EC50 is greater than 2000 nM.

With `Cc1sc(N(Cc2ccc(OCC(=O)N(C)C)cc2)c2ccc(C#N)cc2)nc1C(=O)NS(C)(=O)=O` [Compound 570, 2-[4-cyano-N-[[4-[2-(dimethylamino)-2-oxo-ethoxy]phenyl]methyl]anilino]-5-methyl-N-methylsulfonyl-thiazole-4-carboxamide], the EC50 was 1260 nM.

Take `Cc1sc(N(Cc2ccccc2)Cc2ccncc2)nc1C(=O)NS(C)(=O)=O` [Example 296, 2-[benzyl(4-pyridylmethyl)amino]-5-methyl-N-methylsulfonyl-thiazole-4-carboxamide]: the EC50 was greater than 2000 nM.

On to `Cc1sc(N(CCC2CCN(C(=O)OC(C)(C)C)CC2)Cc2ccccc2)nc1C(=O)NS(C)(=O)=O` [Example 319, tert-butyl 4-[2-[benzyl-[5-methyl-4-(methylsulfonylcarbamoyl)thiazol-2-yl]amino]ethyl]piperidine-1-carboxylate], for which the EC50 is greater than 2000 nM.

`Cc1sc(N(Cc2ccc(C(F)(F)F)cc2C(F)(F)F)c2ccc(C#N)cc2)nc1C(=O)NS(C)(=O)=O` [Compound 414, 2-[N-[[2,4-bis(trifluoromethyl)phenyl]methyl]-4-cyano-anilino]-5-methyl-N-methylsulfonyl-thiazole-4-carboxamide]: the EC50 is 501 nM.

For `Cc1sc(N(Cc2ccccc2)c2ccc(C#N)cn2)nc1C(=O)NS(C)(=O)=O` [Compound 602, 2-[benzyl-(5-cyano-2-pyridyl)amino]-5-methyl-N-methylsulfonyl-thiazole-4-carboxamide], the EC50 is 501 nM.

Regarding `Cc1sc(N(C[C@@H]2CCCC[C@H]2O)c2ccc(C#N)cc2)nc1C(=O)NS(C)(=O)=O` (racemic) [Compound 411, 2-[4-cyano-N-[[trans-2-hydroxycyclohexyl]methyl]anilino]-5-methyl-N-methylsulfonyl-thiazole-4-carboxamide], the EC50 is 794 nM.

With `Cc1sc(N(CCC(C)(C)C)Cc2ccccc2)nc1C(=O)NS(C)(=O)=O` [Compound 686, 2-[benzyl(3,3-dimethylbutyl)amino]-5-methyl-N-methylsulfonyl-thiazole-4-carboxamide], the EC50 is greater than 2000 nM.

For `COc1ccc(CN(c2ccc(C#N)cc2)c2nc(C(=O)NS(C)(=O)=O)c(Br)s2)cc1` [Example 250, 5-bromo-2-[4-cyano-N-[(4-methoxyphenyl)methyl]anilino]-N-methylsulfonyl-thiazole-4-carboxamide], the EC50 is 63.1 nM.

Take `COCCN(c1ccc(C#N)cc1)c1nc(C(=O)NS(C)(=O)=O)c(C)s1` [Compound 357, 2-[4-cyano-N-(2-methoxyethyl)anilino]-5-methyl-N-methylsulfonyl-thiazole-4-carboxamide]: the EC50 was greater than 2000 nM.

Consider `Cc1sc(N(CCc2cccc3ccccc23)Cc2ccccc2)nc1C(=O)NS(C)(=O)=O` [Example 314, 2-[benzyl-[2-(1-naphthyl)ethyl]amino]-5-methyl-N-methylsulfonyl-thiazole-4-carboxamide], for which the EC50 was greater than 2000 nM.

As for `Cc1sc(N(Cc2cccc3nonc23)c2ccc(C#N)cc2)nc1C(=O)NS(C)(=O)=O` [Compound 92, 2-[N-(2,1,3-benzoxadiazol-4-ylmethyl)-4-cyano-anilino]-5-methyl-N-methylsulfonyl-thiazole-4-carboxamide], the EC50 is 158 nM.

In the case of `Cc1sc(N(CCn2ccnc2)c2ccc(C#N)cc2)nc1C(=O)NS(C)(=O)=O` [Compound 458, 2-[4-cyano-N-(2-imidazol-1-ylethyl)anilino]-5-methyl-N-methylsulfonyl-thiazole-4-carboxamide], the EC50 is greater than 2000 nM.

Consider `Cc1sc(N(Cc2ccc(OCCO)cc2)c2ccc(C#N)cc2)nc1C(=O)NS(C)(=O)=O` [Compound 569, 2-[4-cyano-N-[[4-(2-hydroxyethoxy)phenyl]methyl]anilino]-5-methyl-N-methylsulfonyl-thiazole-4-carboxamide], for which the EC50 was 631 nM.

With `Cc1sc(N(CCn2nccc2C)Cc2ccccc2)nc1C(=O)NS(C)(=O)=O` [Compound 682, 2-[benzyl-[2-(5-methylpyrazol-1-yl)ethyl]amino]-5-methyl-N-methylsulfonyl-thiazole-4-carboxamide], the EC50 is greater than 2000 nM.

As to `Cc1ccccc1CN(c1ccc(C#N)cc1)c1nc(C(=O)NS(C)(=O)=O)c(Cl)s1` [Example 259, 5-chloro-2-[4-cyano-N-(o-tolylmethyl)anilino]-N-methylsulfonyl-thiazole-4-carboxamide], the EC50 is 79.4 nM.

As to `Cc1sc(N(CCn2cccn2)Cc2ccccc2)nc1C(=O)NS(C)(=O)=O` [Compound 688, 2-[benzyl(2-pyrazol-1-ylethyl)amino]-5-methyl-N-methylsulfonyl-thiazole-4-carboxamide], the EC50 was greater than 2000 nM.

Regarding `Cc1sc(N(CCc2ccccc2C#N)Cc2ccccc2)nc1C(=O)NS(C)(=O)=O` [Example 302, 2-[benzyl-[2-(2-cyanophenyl)ethyl]amino]-5-methyl-N-methylsulfonyl-thiazole-4-carboxamide], the EC50 is 1260 nM.
